One may read the GI50 as the concentration giving 50% growth inhibition. Read a low GI50 as greater sensitivity of the cells. The IC50 is the concentration needed to halve the response being measured. Low readings indicate inhibition by little substance, high ones a need for much substance.

We go through 19 compounds from patent US20170107207A1, “AMINOPYRAZOLONE DERIVATIVE” (DAIICHI SANKYO COMPANY, LIMITED, priority 2014, published 2017).

In test [1] the test system is human lymphoma cell line RAMOS cells. In words: Cell growth inhibition test using RAMOS cell, MTT assay. Format: cell-based. To be noted: 50% growth inhibition concentration. As to the method:
A cell growth inhibition test was carried out by treating human lymphoma cell line RAMOS cells with a test compound for a given period and then counting the number of viable cells by MTT assay or CellTiter-Glo Luminescent Cell Viability Assay (manufactured by Promega Corp.; hereinafter, referred to as ATP assay).
RAMOS cells were suspended in a medium (RPMI1640 medium containing 10% fetal bovine serum). The cell suspension was inoculated at 5000 cells/150 μL/well to a 96-well multiwell plate. The test compound was dissolved in DMSO, and this solution was diluted with medium to prepare a sample solution (DMSO concentration: 1% or lower). Subsequently, test compound-free medium or the sample solution was added thereto at 50 μL/well. The MTT assay was carried out at the day of addition of the sample solution or the DMSO dilution to the cells and after culture at 37° C. for 3 days under 5% CO2 of the cells supplemented with the sample solution or the medium. The MTT assay was carried out as follows.
A 5 mg/mL solution of MTT (3-(4,5-dimethylthiazol-2-yl)-2,5-diphenyltetrazolium bromide, Sigma-Aldrich Corp., M-2128) was prepared using a phosphate buffered solution (Dulbecco's phosphate-buffered saline). This MTT solution was added at 20 μL/well to the plate. Then, the plate was incubated at 37° C. for 4 hours under 5% CO2. The plate was centrifuged at 1200 rpm for 5 minutes, and then, the culture supernatant was removed by suction using a dispenser. DMSO was added thereto at 150 μL/well to dissolve formed formazan. […] from each well was rendered uniform by the stirring of the plate using a plate mixer. The absorbance of each well was measured using a plate reader under conditions involving OD of 540 nm and reference of 660 nm.
The number of viable cells and absorbance (hereinafter, referred to as an OD value) have been confirmed to correlate with each other. Therefore, the rate of cell growth was calculated according to the following expression: Rate of cell growth (T/C %) of a test compound-supplemented well=100×[(B−C)/(A−C)] wherein A represents the OD value (final culture date) of a test compound-free well; B represents the OD value (final culture date) of a test compound-containing well; and C represents the OD value (day of cell inoculation) of a well at the start of contact of the cells with the test compound.
T/C % at each concentration of the test compound was determined. The concentration at which the test compound offered 50% growth rate was calculated as a 50% growth inhibition concentration (GI50) value from the growth rates at two points interpolating 50% and the concentrations, and is shown in Table 56.

Another test deals with T1, TIP48/TIP49 complex (Homo sapiens, UniProt Q9Y230+Q9Y265).
T1 construct: made in house; host or cells: E. coli
T1 sequence (Q9Y230 whole entry): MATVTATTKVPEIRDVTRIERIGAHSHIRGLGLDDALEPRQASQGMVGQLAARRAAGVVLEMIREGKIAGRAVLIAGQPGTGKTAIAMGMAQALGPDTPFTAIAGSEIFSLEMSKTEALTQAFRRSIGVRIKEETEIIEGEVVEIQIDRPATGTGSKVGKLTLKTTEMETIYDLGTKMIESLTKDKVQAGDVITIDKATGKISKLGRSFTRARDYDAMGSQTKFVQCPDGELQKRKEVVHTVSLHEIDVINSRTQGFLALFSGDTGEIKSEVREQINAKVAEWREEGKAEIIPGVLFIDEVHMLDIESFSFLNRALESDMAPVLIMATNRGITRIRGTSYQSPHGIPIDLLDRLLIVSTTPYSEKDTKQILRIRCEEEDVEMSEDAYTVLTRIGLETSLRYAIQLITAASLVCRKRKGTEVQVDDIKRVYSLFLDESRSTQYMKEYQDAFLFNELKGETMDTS
T1 sequence (Q9Y265 whole entry): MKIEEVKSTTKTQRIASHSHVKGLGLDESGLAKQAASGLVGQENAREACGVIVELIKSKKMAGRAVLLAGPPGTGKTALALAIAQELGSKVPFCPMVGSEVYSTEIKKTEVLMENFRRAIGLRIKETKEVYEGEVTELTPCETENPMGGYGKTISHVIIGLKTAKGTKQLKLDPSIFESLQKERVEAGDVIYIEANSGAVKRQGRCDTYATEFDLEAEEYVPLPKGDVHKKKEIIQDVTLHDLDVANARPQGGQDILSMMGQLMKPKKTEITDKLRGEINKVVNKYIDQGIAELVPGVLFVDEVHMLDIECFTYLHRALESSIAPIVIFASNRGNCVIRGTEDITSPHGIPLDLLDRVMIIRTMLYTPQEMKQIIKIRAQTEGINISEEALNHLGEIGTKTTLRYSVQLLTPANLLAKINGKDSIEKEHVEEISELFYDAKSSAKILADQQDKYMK
In words: ATPase assay of TIP48/TIP49 complex (ADP-Glo). Format: biochemical. To be noted: concentration at which the ATPase activity was inhibited by 50%. The essentials:
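Recombinant human TIP48 and TIP49 expressed in E. coli (24.5 μg/mL final) were incubated 1.5 h at room temperature with compound (0.0007–200 μM, 2% DMSO) in Tris-HCl pH 7.5 buffer containing MgCl2 and ATP. ADP formed was detected by ADP-Glo luminescence; inhibition came from dose-response curves.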
In general terms: In ADP-Glo the light output rises with the ADP produced.

For `Cc1c(NC(=O)CC(C)(C)CNC(=O)c2cc(Cl)ccc2OC(C)C)c(=O)n(-c2ccccc2)n1C` [Example 94], the GI50 in test [1] is 73 nM. The same compound had an IC50 at TIP48/TIP49 complex of 87 nM.
The corresponding values for `Cc1c(NC(=O)CC(C)(O)CNC(=O)c2cc(Cl)c(F)cc2OC(C)C)c(=O)n(-c2ccccc2)n1C` (centres unmarked) [Example 97, 5-Chloro-N-{4-[(1,5-dimethyl-3-oxo-2-phenyl-2,3-dihydro-1H-pyrazol-4-yl)amino]-2-hydroxy-2-methyl-4-oxobutyl}-4-fluoro-2-isopropoxybenzamide] are 1000 nM and 100 nM.
On the same counts, the results for `COc1ccc(Cl)cc1C(=O)NCC(C)(C)CC(=O)Nc1c(C)n(C)n(-c2cccc(C)c2)c1=O` [Example 145, 5-Chloro-N-(4-{[1,5-dimethyl-2-(m-toluyl)-3-oxopyrazol-4-yl]amino}-2,2-dimethyl-4-oxobutyl)-2-methoxybenzamide] are 770 nM and 42 nM.
The corresponding values for `CCOc1ccc(Cl)cc1C(=O)NCC(C)(C)CC(=O)Nc1c(C)n(C(C)C)n(-c2ccccn2)c1=O` [Example 156, 5-Chloro-2-ethoxy-N-(4-{[1-isopropyl-5-methyl-3-oxo-2-(2-pyridyl)pyrazol-4-yl]amino}-2,2-dimethyl-4-oxobutyl)benzamide] are 100 nM and 48 nM.
`COc1ccc(Cl)cc1C(=O)NCC(C)(C)CC(=O)Nc1c(CCNC(=O)OC(C)(C)C)n(C)n(-c2ccccc2)c1=O` [Example 20, tert-Butyl N-{2-[4-({4-[(5-chloro-2-methoxybenzoyl)amino]-3,3-dimethylbutanoyl}amino)-2-methyl-5-oxo-1-phenyl-2,3-dihyro-1H-pyrazol-3-yl]ethyl}carbamate] returned a GI50 in test [1] of 190 nM. At TIP48/TIP49 complex, the 50% inhibitory concentration (IC50) was found to be 65 nM.
The corresponding values for `CCOc1ncc(Cl)cc1C(=O)NCC(C)(C)CC(=O)Nc1c(C)n(C)n(-c2cccc(C)n2)c1=O` [Example 153, 5-Chloro-N-(4-{[1,5-dimethyl-2-(6-methyl-2-pyridyl)-3-oxo-2,3-dihydro-1H-pyrazol-4-yl]amino}-2,2-dimethyl-4-oxobutyl)-2-ethoxypyridine-3-carboxamide] are 210 nM and 98 nM.
The corresponding values for `Cc1c(NC(=O)CC(C)(C)CNC(=O)c2cc(Cl)cc3c2OCCC3)c(=O)n(-c2ccccc2)n1C` [Example 106, 6-Chloro-N-{4-[(1,5-dimethyl-3-oxo-2-phenyl-2,3-dihydro-1H-pyrazol-4-yl)amino]-2,2-dimethyl-4-oxobutyl}chromane-8-carboxamide] are 100 nM and 35 nM.
The corresponding values for `CCOc1ccc(Cl)cc1C(=O)NCC(C)(C)CC(=O)Nc1c(C)n(C)n(-c2cccc(C)n2)c1=O` [Example 152, 5-Chloro-N-(4-{[1,5-dimethyl-2-(6-methyl-2-pyridyl)-3-oxopyrazol-4-yl]amino}-2,2-dimethyl-4-oxobutyl)-2-ethoxybenzamide] are 81 nM and 57 nM.
Consider `Cc1cc2cc(Cl)cc(C(=O)NCC(C)(C)CC(=O)Nc3c(C)n(C)n(-c4ccccn4)c3=O)c2o1` [Example 151, 5-Chloro-N-(4-{[1,5-dimethyl-3-oxo-2-(2-pyridyl)-2,3-dihydro-1H-pyrazol-4-yl]amino}-2,2-dimethyl-4-oxobutyl)-2-methylbenzofuran-7-carboxamide], for which the concentration for 50% growth inhibition (GI50) in test [1] turned out to be 130 nM. This compound displayed an IC50 on TIP48/TIP49 complex of 40 nM.
In test [1], `CCOc1ccc(Cl)cc1C(=O)NCC(C)(C)CC(=O)Nc1c(C)n(CC)n(-c2ccccc2)c1=O` [Example 137, 5-Chloro-2-ethoxy-N-{4-[(1-ethyl-5-methyl-3-oxo-2-phenyl-2,3-dihydro-1H-pyrazol-4-yl)amino]-2,2-dimethyl-4-oxobutyl}benzamide] returned a concentration for 50% growth inhibition (GI50) of 48 nM. Also, at TIP48/TIP49 complex, 38 nM corresponded to half-maximal inhibition (IC50).
On the same counts, the results for `CNCc1c(NC(=O)CC(C)(C)CNC(=O)c2cc(Cl)ccc2OC)c(=O)n(-c2ccccc2)n1C` [Example 4, 5-Chloro-N-(2,2-dimethyl-4-{[1-methyl-5-(methylaminomethyl)-3-oxo-2-phenyl-2,3-dihydro-1H-pyrazol-4-yl]amino}-4-oxobutyl)-2-methoxybenzamide] are 170 nM and 48 nM.
On the same counts, the results for `CCOc1ccc(Cl)cc1NC(=O)CC(C)(C)CC(=O)Nc1c(CCN(C)C)n(C)n(-c2ccccc2)c1=O` [Example 23, N-(5-Chloro-2-ethoxyphenyl)-N′-{5-[2-(dimethylamino)ethyl]-1-methyl-3-oxo-2-phenyl-2,3-dihydro-1H-pyrazol-4-yl}-3,3-dimethylpentanediamide] are 270 nM and 110 nM.
On the same counts, the results for `CCOc1cc(F)c(Cl)cc1NC(=O)CC(C)(C)CC(=O)Nc1c(CCN(C)C)n(C)n(-c2ccccc2)c1=O` [Example 24, N-(5-Chloro-2-ethoxy-4-fluorophenyl)-N′-{5-[2-(dimethylamino)ethyl]-1-methyl-3-oxo-2-phenyl-2,3-dihydro-1H-pyrazol-4-yl}-3,3-dimethylpentanediamide] are 480 nM and 380 nM.
Consider `COc1ccc(Cl)cc1C(=O)NCC(C)(C)CC(=O)Nc1c(COC2CN(C)C2)n(C)n(-c2ccccc2)c1=O` [Example 134], for which the GI50 in test [1] came out at 800 nM. The IC50 at TIP48/TIP49 complex is 220 nM.
On the same counts, the results for `COc1ccc(Cl)cc1NC(=O)CC(C)(CC(=O)Nc1c(C)n(C)n(-c2ccccc2)c1=O)OC` (centres unmarked) [Example 104, N-(5-Chloro-2-methoxyphenyl)-N′-(1,5-dimethyl-3-oxo-2-phenyl-2,3-dihydro-1H-pyrazol-4-yl)-3-methoxy-3-methylpentanediamide] are 1300 nM and 250 nM.
In turn, `COc1ccc(CN(C)Cc2c(NC(=O)CC(C)(C)CNC(=O)c3cc(Cl)ccc3OC)c(=O)n(-c3ccccc3)n2C)c(OC)c1` [Example 3, 5-Chloro-N-{4-[(5-{[(2,4-dimethoxyphenylmethyl)-methylamino]methyl}-1-methyl-3-oxo-2-phenyl-2,3-dihydro-1H-pyrazol-4-yl)amino]-2,2-dimethyl-4-oxobutyl}-2-methoxybenzamide] came in with a concentration for 50% growth inhibition (GI50) in test [1] of 850 nM. Also, at TIP48/TIP49 complex, half-maximal inhibition (IC50) was put at 54 nM.
In test [1], `COc1cc(F)c(Cl)cc1C(=O)NCC(C)(C)CC(=O)Nc1c(CN(C)C)n(C)n(-c2ccccc2)c1=O` [Example 6, 5-Chloro-N-[4-({5-[(dimethylamino)methyl]-1-methyl-3-oxo-2-phenyl-2,3-dihydro-1H-pyrazol-4-yl}amino)-2,2-dimethyl-4-oxobutyl]-4-fluoro-2-methoxybenzamide] had a GI50 of 170 nM. Also, the IC50 at TIP48/TIP49 complex is 150 nM.
With `Cc1c(NC(=O)CC(C)(C)CNC(=O)c2cc(Cl)cc3c2OC(C)CN3)c(=O)n(-c2ccccc2)n1C` (centres unmarked) [Example 109], the GI50 in test [1] worked out at 200 nM. This compound yielded an IC50 against TIP48/TIP49 complex of 200 nM.
For `COc1ccc(Cl)cc1C(=O)NCC(C)(C)CC(=O)Nc1c(CN(C)C)n(C)n(-c2ccccc2)c1=O` [Example 5, 5-Chloro-N-[4-({5-[(dimethylamino)methyl]-1-methyl-3-oxo-2-phenyl-2,3-dihydro-1H-pyrazol-4-yl}amino)-2,2-dimethyl-4-oxobutyl]-2-methoxybenzamide], the 50% growth inhibitory concentration (GI50) in test [1] was 180 nM. In addition, the half-maximal inhibitory concentration (IC50) against TIP48/TIP49 complex amounted to 170 nM.
